How the values were obtained:
[1] = test system: PDX from CNS metastasis (spine) of lung adenocarcinoma; test: Tumor volume of patient-derived xenograft (lung adenocarcinoma spine metastasis) in NSG mice under treatment (FIG. 7, FIG. 8); assay type: in vivo; details: for tumor growth (tumor volume) during treatment: PDX in NSG mice, daily oral gavage for 18 days, SAHA 100 mg/kg, PD0325901 20 mg/kg, vs vehicle
Source text: (§1) Immediately after surgical removal, fresh tissue was collected for heterotopic (flank) injection into NSG mice (NOD scid gamma mice—or mice that are on a NOD/ShiLtJ background with severe combined immune deficiency mutation and the IL2 receptor gamma chain deficiency). Excised patient tissue was placed in a culture dish with medium and minced into small pieces, such that minced tissue suspensions could be drawn through a 16-gauge needle. Minced tissues were placed in a conical tube, media was withdrawn, and matrigel was added to the wet tissue in a 1:1 volume ratio. Approximately 200 μl of the matrigel-tissue mixture was injected subcutaneously into the flanks of two to four mice, and tumors were allowed to develop until the tumors achieved a length of 1.0 to 2.0 cm in the longest dimension. Mice were then sacrificed by CO2 asphyxiation, and their flank tumors were immediately excised. Portions of each excised flank tumor were archived as frozen tissue and as paraffin-embedded tissue following formalin fixation. The remainder of each tumor was dispersed in DMEM, processed as described above and passed by injection into the flank of another NSG mouse.
In view of these changes in the patient's molecular profile, a treatment model was created. […] For example, in view of the G12C mutation in the KRAS gene and the additional amplification this same gene found in the subject's exome, a MEK inhibitor (i.e., a pharmaceutical that targets the mitogen-activated kinase kinase enzymes MEK1 and MEK2) was selected. In this experiment, the MEK inhibitor selected was PD0325901. In addition, the detection of the HDAC9 amplification drove the selection of a drug that has been previously shown efficacy of epigenetic therapy in metastatic lung cancer, suberanilohydroxamic acid or SAHA, which is a potent HDAC inhibitor.
After establishing which treatments were to be used in the case study, 15 animals comprising the PDX were divided into three groups. A first group received vehicle only via intraperitoneal injection each day for 18 days. A second group received SAHA (100 mg/kg) via oral gavage each day for 18 days and a third group received PD0325901 (20 mg/kg) each day for 18 days via oral gavage. Both during and after treatment, tumor volume was measured in each of the mice and the data is plotted in FIG. 7.
Additional experiments were conducted to investigate the potential impact of combination drugs. Referring now to FIG. 8, the drug treatment experiments described above were repeated with an additional pharmaceutical composition, 5-Azacytidine, which is a nucleoside analog that is an FDA-approved treatment for some forms of cancer. […]

[2] = test system: patient-derived xenograft of lung cancer metastasized to the central nervous system (KRAS mutation); test: Tumor weight of patient-derived xenograft of lung cancer CNS metastasis (FIG. 13); assay type: in vivo, mice; details: treatment conditions with MEK inhibitor
Source text: as §1, with “Portions of each excised flank tumor were archived as frozen tissue and as paraffin-embedded tissue following formalin fixation. The remainder of each tumor was dispersed in DMEM, processed as described above and passed by injection into the flank of another NSG mouse.” left out
(§2) Referring next to FIGS. 12 and 13, samples from a different patient (i.e., a patient with lung cancer that metastasized to portions the central nervous system) that were analyzed using some aspects of the instant invention. […] As a result of this analysis, it was determined that a MEK inhibitor (e.g., PD0325901) should be employed in the patient-derived xenograft context to assess potential for therapeutic efficacy.

ERK phosphorylation = test: Immunohistochemistry with anti-phosphorylated ERK antibody (FIG. 14); assay type: in vivo
Protocol: FIG. 14 is an immunohistochemistry study of tissue from the patient whose samples were detailed in FIGS. 12 and 13. In this study, an anti-phosphorylated ERK antibody was used to assess ERK phosphorylation in the various treatment conditions.
Sections were mounted onto a glass slide and stained with reagents designed to detect proteins of interest by IHC staining. This allows samples of many or all of the tumor specimens to be stained at one time. IHC staining was performed to determine the presence or absence of specific proteins and was used to validate potential targets discovered by genome-wide experiments (as previously described).
as §2

[3] = have been shown; cited from earlier work

SMILES | tumor volume growth, single agent and combinations with 5-Azacytidine ([1]; 5-Azacytidine 2.0 mg/kg intraperitoneal, combinations compared to SAHA and PD0325901 alone, FIG. 8) | tumor growth (tumor volume) during treatment ([1]; FIG. 7) | rate of tumor growth after treatment stopped ([1]; after day 18, FIG. 7) | gains in tumor weight [2] | ERK phosphorylation 14 days after treatment (ERK phosphorylation; 14 days after treatment) | ERK phosphorylation in the metastasis cells during treatment (ERK phosphorylation; compared to vehicle alone) | blood-brain barrier penetration [3]
Nc1ncn([C@@H]2O[C@H](CO)[C@@H](O)[C@H]2O)c(=O)n1 [5-Azacytidine] | did not serve as an efficacious treatment | – | – | – | – | – | –
O=C(NOC[C@H](O)CO)c1ccc(F)c(F)c1Nc1ccc(I)cc1F [PD0325901] | – | little to no tumor growth | reduced compared to animals in the SAHA and control groups | most reduced gains in tumor weight | returned to vehicle-treatment levels | reduced ERK phosphorylation | blood-brain barrier penetrant
O=C(CCCCCCC(=O)Nc1ccccc1)NO [SAHA, suberanilohydroxamic acid] | – | reduced tumor growth | – | – | – | – | blood-brain barrier penetrant

Source: patent US10525148B2, “Systems and methods for preclinical models of metastases” (The Translational Genomics Research Institute, priority 2014, dated 2020)
